According to paper PMC9425781, “Targeting integrin αvβ6 with gallium-68 tris (hydroxypyridinone) based PET probes” (Dalton Transactions (Cambridge, England : 2003), 2022):

How the values were obtained:
αvβ6 = details: cited from earlier work
Text: The two molecules 6 and 7 were conjugated to the nonapeptide cyclo-(FRGDLAFp(NMe)K)[29] (p = D-Pro; (NMe)K = N-methyl-Lys) under mild conditions, without the assistance of any activation agent, producing the two conjugates (11 and 12, Fig. 3). Noteworthy, the arginine-glycine-aspartate (RGD) sequence in cyclic peptides is known to selectively bind αv integrins. […] Moreover, the presence of the two non-proteinogenic amino acids, na ...

[1] = target: T1, integrin αvβ6 (pancreatic cancer BxPC-3 cells) (Homo sapiens, UniProt P06756+P18564); assay: Competitive binding assay (gamma counting, unlabelled THP-peptide vs [68Ga]Ga-labelled peptide) on BxPC-3 cells; assay type: cell-based; details: for Span (best-fit value): Std. Error 0.01175 (11), 0.04901 (12), 95% CI 0.04041 to 0.08849 (11), 0.1021 to 0.3002 (12); for log IC50: non-linear regression, GraphPad Prism 9, inhibitor 0.1-5000 nM, 1 h, 37 °C, n = 4, value ± as printed in method; for LogIC50 (best-fit value): Std. Error 0.1982 (11), 0.2904 (12), 95% CI -7.123 to -6.312 (11), -7.167 to -5.993 (12); for HillSlope (best-fit value): Std. Error 0.5820 (11), 0.3994 (12), 95% CI -2.429 to -0.04897 (11), -1.659 to -0.04442 (12)
T1 construct: endogenous in cells; host or cells: BxPC-3 pancreatic cancer cells
Method: Binding of [^68Ga]Ga-Integrin αvβ6-peptide-THP (11 and 12) to αvβ6 integrin was determined in the presence of increasing concentrations of unlabelled THP-peptide conjugate (Fig. 4).
BxPC-3 were plated in 12-well plates at a density of 5 × 10^5 cells per well in 1 mL of complete culture medium, cultured overnight at 37 °C and 5% CO2. Radiolabelling with ^68Ga was done as described above, and a solution containing 15 MBq in 1.0 mL was prepared by dilution with distilled H2O. Eleven inhibitor (unlabelled peptide) concentrations were tested to estimate the IC50 value at 0.1, 0.5, 1, 5, 10, 50, 100, 250, 500, 1000, and 5000 nM. Four wells were used for each concentration (n = 4), prepared in 500 μL of complete media. Following the addition of the inhibitor, 20 μL of the radiolabelled peptide solution was added to each well, corresponding to 300 kbq per well (33 nM of the labelled peptide per well). The cells were then incubated for an hour at the same above-mentioned conditions. Following incubation, media were removed from the wells, and the cells were washed twice with cold PBS (500 μL per washing). For each well, the media and the washings were collected together. After the second wash, 500 μL of 1 M NaOH solution was added to each well to lyse the cells, and cell lysates were retrieved 10 minutes later ([…]). A final wash with PBS (500 μL per well) was undertaken and collected in the same tube as the cell lysate. All tubes (containing either medium and washings or lysate and washings) were gamma-counted using a Wallac 1282 Compugamma Universal Gamma Counter. The resulting values were analyzed using Graphpad Prism 9 software, and a non-linear regression curve was generated, from which the IC50 values (log IC50: −6.72 ± 0.20 for 11 and −6.58 ± 0.29 for 12) were obtained.

[2] = binding curve, nonlinear regression

T1 sequence (P06756 31-889 limits assumed): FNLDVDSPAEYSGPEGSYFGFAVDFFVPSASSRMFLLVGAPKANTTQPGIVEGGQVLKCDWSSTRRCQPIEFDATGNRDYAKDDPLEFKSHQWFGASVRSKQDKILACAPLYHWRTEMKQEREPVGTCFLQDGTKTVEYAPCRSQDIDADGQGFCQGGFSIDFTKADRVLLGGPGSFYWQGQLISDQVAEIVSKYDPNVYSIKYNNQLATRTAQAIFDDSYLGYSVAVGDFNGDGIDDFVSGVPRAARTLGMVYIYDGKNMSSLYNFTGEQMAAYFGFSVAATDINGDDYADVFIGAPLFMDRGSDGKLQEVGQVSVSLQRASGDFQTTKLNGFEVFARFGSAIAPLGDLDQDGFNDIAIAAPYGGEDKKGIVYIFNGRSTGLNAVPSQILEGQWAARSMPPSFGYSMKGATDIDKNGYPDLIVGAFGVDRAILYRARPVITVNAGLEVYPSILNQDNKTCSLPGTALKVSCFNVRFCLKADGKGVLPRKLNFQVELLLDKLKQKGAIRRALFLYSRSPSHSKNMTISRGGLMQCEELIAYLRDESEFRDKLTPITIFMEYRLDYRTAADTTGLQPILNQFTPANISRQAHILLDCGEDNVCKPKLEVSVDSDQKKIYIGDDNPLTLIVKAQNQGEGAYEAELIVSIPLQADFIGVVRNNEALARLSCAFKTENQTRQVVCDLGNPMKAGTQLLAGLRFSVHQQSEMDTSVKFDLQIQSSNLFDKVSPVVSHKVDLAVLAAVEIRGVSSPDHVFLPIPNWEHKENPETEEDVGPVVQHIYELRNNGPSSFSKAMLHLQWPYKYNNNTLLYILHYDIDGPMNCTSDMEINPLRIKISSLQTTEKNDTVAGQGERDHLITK
T1 sequence (P06756 891-1048 partner limits assumed): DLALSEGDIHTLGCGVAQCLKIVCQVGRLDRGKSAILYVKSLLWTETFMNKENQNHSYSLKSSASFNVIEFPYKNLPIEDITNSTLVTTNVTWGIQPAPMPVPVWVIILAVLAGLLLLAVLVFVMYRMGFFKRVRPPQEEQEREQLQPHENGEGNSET
T1 sequence (P18564 22-788): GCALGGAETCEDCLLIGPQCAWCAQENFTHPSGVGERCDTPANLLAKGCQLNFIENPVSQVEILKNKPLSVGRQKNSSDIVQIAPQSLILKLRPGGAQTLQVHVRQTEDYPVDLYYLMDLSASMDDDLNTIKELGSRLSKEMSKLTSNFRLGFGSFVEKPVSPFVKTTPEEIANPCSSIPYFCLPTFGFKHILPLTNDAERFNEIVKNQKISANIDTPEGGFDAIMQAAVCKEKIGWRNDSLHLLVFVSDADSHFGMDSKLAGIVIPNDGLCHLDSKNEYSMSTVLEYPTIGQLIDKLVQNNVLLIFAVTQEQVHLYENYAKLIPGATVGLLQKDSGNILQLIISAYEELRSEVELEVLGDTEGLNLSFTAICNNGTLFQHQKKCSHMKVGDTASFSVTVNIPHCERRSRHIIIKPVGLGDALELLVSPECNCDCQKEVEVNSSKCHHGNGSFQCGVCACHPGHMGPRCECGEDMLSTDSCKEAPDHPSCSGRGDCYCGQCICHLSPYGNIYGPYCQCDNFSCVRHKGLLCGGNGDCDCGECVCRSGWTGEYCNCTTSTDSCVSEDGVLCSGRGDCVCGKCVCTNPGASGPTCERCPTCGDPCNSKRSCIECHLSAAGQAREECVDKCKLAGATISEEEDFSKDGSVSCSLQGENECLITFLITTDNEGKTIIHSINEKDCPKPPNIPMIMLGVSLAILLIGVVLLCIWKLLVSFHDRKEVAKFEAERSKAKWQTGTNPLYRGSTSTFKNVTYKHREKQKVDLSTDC

Question: What does the source list for “cyclo-(FRGDLAFp(NMe)K) (head to tail) [compound 10]”?
Answer: potency and selectivity for αvβ6 (in words) (αvβ6): potent and selective binder for αvβ6; IC50 (αvβ6; αvβ6): 0.26 nM

Question: Which results are given for “cyclo-(FRGDLAFp(NMe)K)-THPs (head to tail) [compound 11, cyclo-(FRGDLAFp(NMe)K) conjugated to THP-glutaric (6)]”?
Answer: Span (best-fit value) [1, 2]: 0.06445; log IC50 [1]: −6.72 ± 0.20; LogIC50 (best-fit value) ([1]; nonlinear regression): -6.717; HillSlope (best-fit value) ([1]; nonlinear regression): -1.239

Question: For “cyclo-(FRGDLAFp(NMe)K)-THPs (head to tail) [compound 12, cyclo-(FRGDLAFp(NMe)K) conjugated to THP-adipic (7)]”, which “Top (best-fit value)” value ([1]; binding curve, nonlinear regression, Std. Error 0.004453 (11), 0.01334 (12), 95% CI 0.1175 to 0.1358 (11), 0.2906 to 0.3446 (12)) is on record?
Answer: Its value is 0.3176.

Question: What about the “Bottom (best-fit value)” value ([1]; binding curve, nonlinear regression, Std. Error 0.01017 (11), 0.04302 (12), 95% CI 0.04141 to 0.08300 (11), 0.02951 to 0.2034 (12)) of the same substance?
Answer: The value was 0.1165.

Question: And the “Span (best-fit value)” value [1, 2]?
Answer: Its value is 0.2012.

Question: And the “log IC50” value [1]?
Answer: The value was −6.58 ± 0.29.

Question: What about the “LogIC50 (best-fit value)” value ([1]; nonlinear regression) of the same substance?
Answer: Its value is -6.580.

Question: And the “HillSlope (best-fit value)” value ([1]; nonlinear regression)?
Answer: Its value is -0.8516.
